Assays:
hPPAR α = target: T1, hPPAR α (Homo sapiens, UniProt Q07869); experiment: Transient transfection (transactivation) assay in CV-1 cells, hPPAR alpha; type: cell-based; details: GAL4 chimeric receptor, SPAP reporter
T1 construct: expressed in transfected cells; host or cells: CV-1 cells
T1 sequence (Q07869 239-466 limits assumed): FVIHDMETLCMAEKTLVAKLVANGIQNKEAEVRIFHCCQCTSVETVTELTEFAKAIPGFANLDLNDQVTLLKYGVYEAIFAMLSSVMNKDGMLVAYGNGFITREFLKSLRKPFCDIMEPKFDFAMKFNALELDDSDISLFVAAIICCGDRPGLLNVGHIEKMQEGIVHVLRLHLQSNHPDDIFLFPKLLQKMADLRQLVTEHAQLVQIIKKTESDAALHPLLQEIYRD
Text: (§1) Compounds were screened for functional potency in transient transfection assays in CV-1 cells for their ability to activate the PPAR subtypes (transactivation assay). A previously established chimeric receptor system was utilized to allow comparison of the relative transcriptional activity of the receptor subtypes on the same target gene and to prevent endogenous receptor activation from complicating the interpretation of results. […] The ligand binding domains for murine and human PPAR alpha, PPAR gamma, and PPAR delta were each fused to the yeast transcription factor GAL4 DNA binding domain. CV-1 cells were transiently transfected with expression vectors for the respective PPAR chimera along with a reporter construct containing five copies of the GAL4 DNA binding site driving expression of secreted placental alkalin phosphatase (SPAP) and beta-galactosidase. After 16 h, the medium was exchanged to DME medium supplemented with 10% delipidated fetal calf serum and th test compound at the appropriate concentration. After an additional 24 h, cell extracts were prepared and assayed for alkaline phosphatase and β-galactosidase activity. […] The positive control in the hPPAR alpha assays was 2-methyl-2-[4-{[(4-methyl-2-[4-trifluoromethylphenyl]-thiazol-5-yl-carbonyl)amino]methyl}-phenoxy]propionic acid. The positive control for PPAR delta assays was 2-{2-methyl-4-[({4-methyl-2-{trifluoromethyl)phenyl]-1,3-thiazol-5-yl}methyl)sulfanyl]phenoxy}acetic acid.

hPPAR δ = target: T2, hPPAR δ (Homo sapiens, UniProt Q03181); experiment: Transient transfection (transactivation) assay in CV-1 cells, hPPAR delta; type: cell-based; details: GAL4 chimeric receptor, SPAP reporter
T2 construct: expressed in transfected cells; host or cells: CV-1 cells
T2 sequence (Q03181 211-439 limits assumed): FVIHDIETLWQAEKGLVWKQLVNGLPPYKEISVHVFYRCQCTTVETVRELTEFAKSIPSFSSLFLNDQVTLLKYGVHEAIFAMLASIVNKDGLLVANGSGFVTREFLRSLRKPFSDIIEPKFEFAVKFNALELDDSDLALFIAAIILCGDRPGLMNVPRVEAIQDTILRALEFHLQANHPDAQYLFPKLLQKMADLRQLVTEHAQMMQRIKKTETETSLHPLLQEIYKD
Text: as §1

hPPAR γ = target: T3, hPPAR γ (Homo sapiens, UniProt P37231); experiment: Transient transfection (transactivation) assay in CV-1 cells, hPPAR gamma; type: cell-based; details: GAL4 chimeric receptor, SPAP reporter
T3 construct: expressed in transfected cells; host or cells: CV-1 cells
T3 sequence (P37231 238-503 limits assumed): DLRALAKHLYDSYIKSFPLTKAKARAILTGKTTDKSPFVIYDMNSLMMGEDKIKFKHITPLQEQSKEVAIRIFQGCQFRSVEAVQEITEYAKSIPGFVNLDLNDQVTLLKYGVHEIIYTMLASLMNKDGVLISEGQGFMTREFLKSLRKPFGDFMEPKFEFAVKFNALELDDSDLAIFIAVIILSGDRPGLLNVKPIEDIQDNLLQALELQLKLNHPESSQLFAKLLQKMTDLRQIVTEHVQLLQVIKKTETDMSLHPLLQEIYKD
Text: as §1

**Q.** What does the source list for `Cc1cc(O[C@@H](C)c2sc(-c3ccc(C(F)(F)F)cc3)nc2C)ccc1OC(C)(C)C(=O)O` [Example 9, (S)-2-methyl-2-(2-methyl-4-{1-[4-methyl-2-(4-trifluoromethylphenyl)-thiazol-5-yl]ethoxy}-phenoxy)-propionic acid]?
**A.** EC50 (hPPAR α): 16 nM; EC50 (hPPAR δ): 3 nM; EC50 (hPPAR γ): 7000 nM

**Q.** For `Cc1cc(O[C@H](C)c2sc(-c3ccc(C(F)(F)F)cc3)nc2C)ccc1OC(C)(C)C(=O)O` [Example 11, (R)-2-methyl-2-(2-methyl-4-{1-[4-methyl-2-(4-trifluoromethylphenyl)-thiazol-5-yl]ethoxy}-phenoxy)-propionic acid], which EC50 (hPPAR α) is on record?
**A.** The EC50 was 10 nM.

**Q.** And the EC50 (hPPAR δ)?
**A.** The EC50 was 0.7 nM.

**Q.** And the EC50 (hPPAR γ)?
**A.** Its EC50 is 300 nM.

**Q.** With `Cc1cc(OC(C)c2sc(-c3ccc(C(F)(F)F)cc3F)nc2C)ccc1OC(C)(C)C(=O)O` (stereo not shown) [Example 19, 2-(4-{1-[2-(2-fluoro-4-trifluoromethyl-phenyl)-4-methyl-thiazol-5-yl]-ethoxy}-2-methyl-phenoxy)-2-methyl-propionic acid] as the molecule, how does the melting point read?
**A.** The melting point was 133 °C.

**Q.** For `CC[C@@H](Oc1ccc(OC(C)(C)C(=O)O)c(C)c1)c1sc(-c2ccc(C(F)(F)F)cc2)nc1C` [Example 29, (R)-2-methyl-2-(2-methyl-4-{1-[4-methyl-2-(4-trifluoromethyl-phenyl)thiazol-5-yl]propoxy}-phenoxy)-propionic acid], which EC50 (hPPAR α) is on record?
**A.** Its EC50 is 9 nM.

**Q.** And the EC50 (hPPAR δ)?
**A.** Its EC50 is 1.5 nM.

**Q.** What about the EC50 (hPPAR γ) of the same molecule?
**A.** The EC50 was 240 nM.

**Q.** For `CC[C@H](Oc1ccc(OC(C)(C)C(=O)O)c(C)c1)c1sc(-c2ccc(C(F)(F)F)cc2)nc1C` [Example 31, (S)-2-methyl-2-(2-methyl-4-{1-[4-methyl-2-(4-trifluoromethyl-phenyl)-thiazol-5-yl]propoxy}-phenoxy)-propionic acid], which EC50 (hPPAR α) is on record?
**A.** Its EC50 is 5 nM.

**Q.** What about the EC50 (hPPAR δ) of the same molecule?
**A.** The EC50 was 1.7 nM.

**Q.** What about the EC50 (hPPAR γ) of the same molecule?
**A.** Its EC50 is 660 nM.
